Source: patent US20060052283A1, “The Sperm Binding Ligand HIPRTY and Its Involvement in Embryo Cleavage” (priority 2004, published 2006)

Test system: mouse sperm
Assay: Phage combinatorial peptide library screening of intact live sperm
Conditions: live CB6F1 mouse sperm, 4 rounds of binding, amplification and selection, Ph.D-7 and Ph.D-12 libraries
Protocol: A mouse sperm suspension was isolated from cauda epididymides of fertile male CB6F1 mice. Briefly, the epididymides and vas deferens were dissected in a 35 mm dish containing 5 ml of CZB (pre-equilibrated at 37° C. and 5% CO2) and gently compressed to release sperm. Following a 10 minute incubation period, the epididimydes were removed and the sperm suspension incubated for a further 30 minute period. A 500 ul aliquot of the sperm suspension was removed from the top layer of media and placed in a 1.5 ml centrifuge tube. A 3 ul volume of phage combinatorial peptide library was added to this tube and the suspension incubated for 1 hour at 37 degrees. Following incubation, the sperm suspension was washed as follows. The suspension was centrifuged in a tabletop microcentrifuge at maximum speed for 1 minute and the majority of the supernatant removed. The remaining volume was re-suspended in 1 ml of media via pipetting and separated into two 500 ul aliquots in two 15 ml centrifuge tubes. A further 14 ml of CZB wash media was added to these tubes followed by 15 min incubation at room temperature. The tubes were centrifuged at 1000 g for 5 minutes and the supernatant removed down to an approximate 50 ul volume. […]
Phage DNA was isolated by several different methods. […] DNA quality and quantity was determined via agarose gel electrophoresis on vertical mini-gels with novel illumination and filters. […]

HIPRTY
binding sequence selected from combinatorial libraries: binding sequence of mouse sperm
